{
  "source": "paper PMC5739799",
  "about": "(Oncotarget, 2017)",
  "key": {"HCC-PDX model 61": {"test_system": "HCC-PDX model 61", "experiment": "Patient-derived HCC xenograft model 61, tumor growth", "assay_type": "in vivo, BALB/c nude mice", "protocol": "(§1) The PDX studies were carried out by WuXi AppTec (Shanghai, China). HCC-PDX models were originally established from surgically resected tumor tissue that was implanted in 6–8-week-old female BALB/c nude mice. Animal studies were performed according to the guidelines approved by the Institutional Animal Care and Use Committee of Wuxi AppTec, which follow the guidance of the Association for the Assessment and Accreditation of Laboratory Animal Care. Animals were routinely monitored for their health status and their body weights. Treatment was suspended and/or doses reduced at body weight losses >10%. Animals were euthanized when the tumor size exceeded 2000 mm^3. Pieces from tumor xenografts (∼30 mm^3) from passages 4–8 (ST1) were implanted subcutaneously at the right flank, and tumors were grown to an average size of about 150–200 mm^3. […] Tumor size was measured twice weekly using caliper measurements. Tumor volume (mm^3) was calculated using the formula 0.5 a × b^2, where a and b are the long and short diameters of the tumor, respectively. TGI was assessed either by calculating the ratio of the mean tumor volumes of treated and control groups or by determination of the RTV, which relates tumor volumes at any given day of treatment to the volume at the first treatment day.\n(§2) In the syngenic orthotopic H129 model, differences in survival times between groups were analyzed for significance using log-rank tests. Analysis of tumor volumes of the HCC-PDX models was performed with log2-transformed values on defined days of measurement based on the assumption of their log-normal distribution. […] All respective statistical test results were derived from a common linear model that allows for individual variances in the different groups. The adjustment for multiple testing was carried out using Šidák correction at a significance level of 0.05. Back transformation of the mean difference of log2-transformed tumor volumes led to the ratios of the compared groups, whereby ratios of 1 reflect no difference in tumor volumes and ratios below or above 1 reflect smaller or larger tumor volumes, respectively, of the respective second group. The analyses of RTV were carried out in a similar fashion without the log2 transformation of values. Bead-based western data were analyzed (described in [15]) using the MEV 4.8.1 software package. A p-value <0.05 was regarded as significant. All statistical analyses were performed with SAS® 9.4 [34]."}, "[1]": {"experiment": "Steady-state plasma pharmacokinetics after oral dosing for 5 days", "assay_type": "in vivo, BALB/c nu/nu mice", "protocol": "Pharmacokinetic studies were performed in 6–8-week-old female BALB/c nu/nu mice (Charles River, Sulzfeld, Germany). […] Parent compounds and metabolites M-2 and M-5 were analyzed in plasma samples using validated bioanalytical liquid chromatography-tandem mass spectrometry (LC-MS/MS) methods according to an experimental protocol described earlier. PK parameters, namely the AUC(0–24)ss and Cmax, were calculated from plasma concentrations using a non-compartmental analysis."}, "HCC-PDX model 159": {"test_system": "HCC-PDX model 159", "experiment": "Patient-derived HCC xenograft model 159, tumor growth", "assay_type": "in vivo, BALB/c nude mice", "protocol": "as §1, §2"}, "HCC-PDX model 20": {"test_system": "HCC-PDX model 20", "experiment": "Patient-derived HCC xenograft model 20, tumor growth", "assay_type": "in vivo, BALB/c nude mice", "protocol": "as §1, §2"}, "HCC-PDX model 141": {"test_system": "HCC-PDX model 141", "experiment": "Patient-derived HCC xenograft model 141, tumor growth", "assay_type": "in vivo, BALB/c nude mice", "protocol": "as §1, §2"}, "HCC-PDX model 101": {"test_system": "HCC-PDX model 101", "experiment": "Patient-derived HCC xenograft model 101, tumor growth", "assay_type": "in vivo, BALB/c nude mice", "protocol": "as §1, §2"}, "HCC-PDX model 19": {"test_system": "HCC-PDX model 19", "experiment": "Patient-derived HCC xenograft model 19, tumor growth", "assay_type": "in vivo, BALB/c nude mice", "protocol": "as §1, §2"}, "HCC-PDX model 217": {"test_system": "HCC-PDX model 217", "experiment": "Patient-derived HCC xenograft model 217, tumor growth", "assay_type": "in vivo, BALB/c nude mice", "protocol": "as §1, §2"}, "HCC-PDX model 5": {"test_system": "HCC-PDX model 5", "experiment": "Patient-derived HCC xenograft model 5, tumor growth", "assay_type": "in vivo, BALB/c nude mice", "protocol": "as §1, §2"}, "[2]": {"test_system": "10 patient-derived HCC xenograft (HCC-PDX) models", "experiment": "Panel of 10 HCC-PDX models, overall response and tolerability", "assay_type": "in vivo, BALB/c nude mice", "protocol": "as §1\n(§3) In the syngenic orthotopic H129 model, differences in survival times between groups were analyzed for significance using log-rank tests. Analysis of tumor volumes of the HCC-PDX models was performed with log2-transformed values on defined days of measurement based on the assumption of their log-normal distribution. […] All respective statistical test results were derived from a common linear model that allows for individual variances in the different groups. The adjustment for multiple testing was carried out using Šidák correction at a significance level of 0.05. […] Bead-based western data were analyzed (described in [15]) using the MEV 4.8.1 software package. […]"}, "H129 hepatoma": {"test_system": "H129 hepatoma", "experiment": "Syngenic orthotopic H129 hepatoma mouse model, survival", "assay_type": "in vivo, C3H/HeN mice", "conditions": "sorafenib 30 mg/kg/day oral, separate study; vehicle 28 days", "description": "C3H/HeN mice aged 10–12 weeks with an average weight of 25 g were used for this model and were obtained from Charles River (Sulzfeld, Germany). Experiments were initiated after an acclimatizing period of at least 8 days. Syngenic murine H129 hepatoma cells (obtained from Dr. V. Schmitz, University of Bonn, Germany) were cultivated in RPMI medium, containing 10% fetal calf serum (FCS) and 5% glutamine. Cells were harvested in a subconfluent state (70–80%), prepared for injection of 5×10^4 cells/20 μL in growth factor-free Matrigel, and transplanted in the left upper liver lobe. Animals with surgical failures were marked and excluded from the experiment. Treatment was initiated 4–5 days after transplantation. One set of mice received regorafenib 10 mg/kg once daily, vehicle solution once daily, or no treatment (n=8 per treatment group). […] Treatments were given orally via gavage. The vehicle solution contained 10% Transcutol, 10% Cremophor, and 80% 0.9% NaCl. Animals were weighed twice a week and monitored daily for behavior and wound healing. […] Due to ascites formation in the peritoneum (a symptom of the disease), body weight was not used as part of the assessment. Animals were dissected to assess the cause of death unless they had died in their cage overnight.\nas §3"}, "[3]": {"conditions": "plasma analyte after oral sorafenib tosylate 30 mg/kg/day (21.9 mg/kg/day sorafenib) for 5 days"}, "[4]": {"conditions": "day 28, R 10 / S 30 mg/kg/day oral starting dose"}},
  "note": "Where “and” joins values, the source holds several entries; their conditions need not be identical. Equal entries are not always repeated.",
  "data": [
    {"compound": "CNC(=O)c1cc(Oc2ccc(NC(=O)Nc3ccc(Cl)c(C(F)(F)F)c3)cc2)ccn1", "note": "[Sorafenib]", "values": [
      {"measurement": "Mean TV", "setting": "HCC-PDX model 61; day 25, R 10 / S 30 mg/kg/day oral", "result": 424.86, "unit": "mm^3"},
      {"measurement": "RTV", "setting": "HCC-PDX model 61; end of study (RTV analysis day R 42, S 36)", "result": 5.28},
      {"measurement": "AUC(0–24)ss (percent of total)", "setting": "[1]; after oral sorafenib tosylate 30 mg/kg/day for 5 days, total = molar sum of sorafenib and M-2", "result": "99% of total"},
      {"measurement": "AUC(0–24)ss", "setting": "[1]; [3]", "result": 177, "unit": "µM·h"},
      {"measurement": "Cmax", "setting": "[1]; [3]", "result": 23.9, "unit": "µM"},
      {"measurement": "Estimated Cmax", "setting": "[1]; sorafenib 30 mg/kg/day related to free base (HCC-PDX study dose), assuming dose linearity", "result": 33.6, "unit": "µM"},
      {"measurement": "Cumulated maximum concentration (Cmax)", "setting": "[1]; sorafenib tosylate 30 mg/kg once daily for 5 days, parent plus metabolites", "result": 24.5, "unit": "µM"},
      {"measurement": "Mean TV", "setting": "HCC-PDX model 159; [4]", "result": 1144.22, "unit": "mm^3"},
      {"measurement": "log TV Differences of least square-means, compound vs vehicle", "setting": "HCC-PDX model 159; day 28, log2-transformed TV", "result": -0.3943},
      {"measurement": "RTV", "setting": "HCC-PDX model 159; end of study, day 35", "result": 9.73},
      {"measurement": "Mean TV", "setting": "HCC-PDX model 20; day 21, R 10 / S 30 mg/kg/day oral", "result": 737.74, "unit": "mm^3"},
      {"measurement": "log TV Differences of least square-means, compound vs vehicle", "setting": "HCC-PDX model 20; day 21, log2-transformed TV", "result": -0.3573},
      {"measurement": "RTV Differences of least square-means, compound vs vehicle", "setting": "HCC-PDX model 20; day 42", "result": -12.2},
      {"measurement": "RTV", "setting": "HCC-PDX model 20; end of study, day 42", "result": 10.55},
      {"measurement": "Mean TV", "setting": "HCC-PDX model 141; [4]", "result": 139.51, "unit": "mm^3"},
      {"measurement": "RTV", "setting": "HCC-PDX model 141; end of study, day 42", "result": 2.16},
      {"measurement": "Mean TV", "setting": "HCC-PDX model 101; [4]", "result": 416.97, "unit": "mm^3"},
      {"measurement": "RTV", "setting": "HCC-PDX model 101; end of study, day 42", "result": 5.37},
      {"measurement": "Mean TV", "setting": "HCC-PDX model 19; [4]", "result": 496.54, "unit": "mm^3"},
      {"measurement": "log TV Differences of least square-means, compound vs vehicle", "setting": "HCC-PDX model 19; day 28, log2-transformed TV", "result": -0.6887},
      {"measurement": "RTV Differences of least square-means, compound vs vehicle", "setting": "HCC-PDX model 19; day 42", "result": -29.3},
      {"measurement": "RTV", "setting": "HCC-PDX model 19; end of study, day 42", "result": 4.70},
      {"measurement": "Mean TV", "setting": "HCC-PDX model 217; day 13, R 10 / S 30 mg/kg/day oral", "result": 1087.45, "unit": "mm^3"},
      {"measurement": "log TV Differences of least square-means, compound vs vehicle", "setting": "HCC-PDX model 217; day 13, log2-transformed TV", "result": "-10,119"},
      {"measurement": "RTV", "setting": "HCC-PDX model 217; end of study (RTV analysis day R 24, S 20)", "result": 10.84},
      {"measurement": "Mean TV", "setting": "HCC-PDX model 5; [4]", "result": 134.44, "unit": "mm^3"},
      {"measurement": "log TV Differences of least square-means, compound vs vehicle", "setting": "HCC-PDX model 5; day 28, log2-transformed TV", "result": "-24,884"},
      {"measurement": "RTV Differences of least square-means, compound vs vehicle", "setting": "HCC-PDX model 5; day 46", "result": "-54,048"},
      {"measurement": "RTV", "setting": "HCC-PDX model 5; end of study, day 46", "result": 1.74},
      {"measurement": "Models with significant tumor growth inhibition", "setting": "[2]; 10 HCC-PDX models, regorafenib 10, sorafenib 30 mg/kg/day oral", "result": "7/10"},
      {"measurement": "Dose reductions and/or treatment interruptions", "setting": "[2]; HCC-PDX models, sorafenib compared with regorafenib", "result": "more often"},
      {"measurement": "Median survival, days (95% CI)", "setting": "H129 hepatoma", "result": "33 days and 33 (27, 35) days"}
    ]}
  ]
}
